Measured values: article PMC8279484 (Journal of Medicinal Chemistry, 2021)

Tests used:
Assay type in all cases: cell-based, human
IFNγ = assay: LPS-induced IFNγ release from THP-1 Lucia monocytes (multiplex electrochemiluminescence)
Method: (§1) LXA41 and all of the tested sLXms were dissolved in ethanol and further diluted in a culture medium (final ethanol concentration 0.1%; equivalent concentrations were used as the vehicle control). Prior to in vitro experiments, THP-1-Lucia NF-κB cells were harvested and plated at 1 × 10^5 cells/well on 96-well plates and left to settle in the incubator at 37 °C, 95% humidity, and 5% CO2, in 0.1% FBS-containing media, pretreated for 30 min with increasing doses of LXA41, sLXms (from 10^–12 to 10^–6 M), or appropriate controls, followed by stimulation with 50 ng/mL LPS for 24 h. Untreated (Unt) or vehicle-treated (Veh) cells were used as negative controls; 1 pM (1R)-5, the (1R)-epimer of the benzo-mimetic, was used as a positive control for any aromatic mimetic; and, finally, we compared the observed effects to the conventional glucocorticoid dexamethasone (Dex) treatment, at 1 μM.
(§2) After 24 h of exposure to LXA41, sLXms, or vehicle, followed by LPS stimulation (50 ng/mL), as described above, THP-1-Lucia NF-κB-cell supernatants were collected and cleared by centrifugation. Concentrations of IFN-γ, IL-1β, IL-6, IL-8, IL-10, IL-12p70, and TNF-α in culture supernatants were assessed by electro-chemi-luminescent detection, using a commercially available human 96-well plate “multiplex” (several analytes in the same well) kit for tissue culture samples, according to the manufacturers’ guidelines.
(§3) The “coding” of the heat-map indicates the arbitrary criteria to assign points to each single PD component (efficacy = Imax or Emax; potency = IC50 or EC50; slope = HS) to generate a final (aggregate) relative PD score. If a single PD component was greater than the reference level (x > 1), then the single-component relative score was arbitrarily set to +1 (light green) or +2 (dark green). If a single PD component was equal to the reference level (x = 1), then the single-component relative score was arbitrarily set to 0 (gray). If a single PD component was smaller than the reference level (x < 1), then the single-component relative score was arbitrarily set to −1 (light red) or −2 (dark red). If the curve of a single PD component was best fitting to a flat line (x = 0), then the single-component relative score was arbitrarily set to −4 (purple) (Table S1).

THP-1 LUCIA monocytes [1] = assay: In vitro safety study: Safety index (Si), activity versus toxicity; conditions: for IC50: Homo sapiens, THP-1, highest IC50 among the LPS-challenged assays (NF-κB activity, cytokine, LDH release), read-out: Extrinsic Activity hIC50; for Safety Index TC50/IC50: ratio of intrinsic TC50 to extrinsic hIC50
Method: A postanalysis “safety study” was conducted on all QNX-sLXms. For each tested compound, we calculated an in vitro “Safety index” (Si) by relating its “anti-inflammatory half-maximal activity” (the highest dose among the IC50 of the extrinsic LPS-challenged phenotype: NF-κB activity, proinflammatory cytokine, and LDH release) to its intrinsic “toxicity” (expressed as the relative half-maximal LDH-associated cytotoxicity). The generated Si is potentially predictive of a translational “therapeutic” range: the higher the Si, the safer the molecule is. As summarized in Table S4, Si values from all tested compounds fall in a broad range (7–50).

THP-1 LUCIA monocytes [2] = assay: Intrinsic cytotoxicity: LDH release without LPS; conditions: for Intrinsic Toxicity Level: LDH-associated level of cytotoxicity (high / moderate / low); for Intrinsic Toxicity TC50 (pM): half-maximal intrinsic LDH-associated toxic activity, no LPS
Method: We investigated the potential cytotoxicity of all candidate sLXms by assaying LDH release.[50] The response to LPS was arbitrarily set to 100%, and values were expressed relative to this. As previously reported by others, LPS provokes LDH release.[51] […] Ultimately, untreated cells defined the spontaneous cell release thresholds.
Lactate dehydrogenase (LDH) was assayed in cell supernatants to investigate possible cytotoxicity of the lead compound. LDH is rapidly released into the culture medium after disruption of the plasma membrane.[67],[69] After 24 h of exposure to sLXms, vehicle, or controls, followed by LPS stimulation, as described above, THP-1-Lucia NF-κB-cell supernatants were collected and LDH was assayed. Cytotoxicity was evaluated relative to vehicle controls. Maximum releasable LDH was determined in cells lysed with 2% Triton-X-100 (Sigma-Aldrich, Ireland). LDH levels were assessed by reading the absorbance at 490 nm (protein) and 690 nm (background noise), using a spectrophotometer (SPECTRAMAX M2, Molecular Devices (U.K.) Limited).

IL-1β = assay: LPS-induced IL-1β release from THP-1 Lucia monocytes (multiplex electrochemiluminescence)
Method: as §1, §2, §3

NF-κB = assay: LPS-induced NF-κB-driven luciferase gene reporter assay in THP-1 Lucia monocytes; conditions: for Rel. Slope: HS relative to LXA4 (1); for Efficacy Rel. Eff.: Imax relative to LXA4 (1); for reduction of LPS-induced NF-κB-driven luciferase activity: approximate extent; for reduction of LPS-induced NF-κB-driven luciferase activity / Imax (%): 1 pM–1 μM; for Imax (%): maximal % inhibition of LPS (50 ng/mL)-stimulated NF-κB luciferase activity, 30 min pretreatment
Method: Mycoplasma-free THP-1-Lucia NF-κB cells were grown in an RPMI 1640 (Gibco) medium containing 2 mM L-glutamine, 1.50 g/L sodium bicarbonate, 4.50 g/L glucose, 10 mM N-(2-hydroxyethyl)piperazine-N′-ethanesulfonic acid (HEPES), and 1 mM sodium pyruvate. Then, 10% heat-inactivated fetal bovine serum (FBS) (30 min at 56 °C), 100 μg/mL Normocin, and Pen-Strep (50 U/mL to 50 μg/mL) were also added to the growth media. As THP-1-Lucia cells were resistant to Zeocin, the latter was used as a selective antibiotic (a high dose, i.e., 100 μg/mL, was alternated every 2 weeks with a low dose, i.e., 10 μg/mL).
as §1, with “h.” for “h. Untreated (Unt) or vehicle-treated (Veh) cells were used as negative controls; 1 pM (1R)-5, the (1R)-epimer of the benzo-mimetic, was used as a positive control for any aromatic mimetic; and, finally, we compared the observed effects to the conventional glucocorticoid dexamethasone (Dex) treatment, at 1 μM.”
NFκB activity was monitored in the human THP-1 monocytic leukemia cell line containing a stably integrated NF-κB-inducible Lucia reporter construct (as previously reported).[21] When stimulated with LPS, the transcription factor NF-κB is activated, upregulating the synthesis of proinflammatory mediators, thus bringing about an inflammatory response. In these cells, NF-κB activation is linked to a […] luciferase gene and can be measured using luminescence.
Heat-killed listeria monocytogenes (HKLM) (10^8/mL) was used as a positive control.[28] The levels of NF-κB-induced Luciferase were then measured in a culture supernatant using QUANTI-Luc as the detection reagent, and measurements were taken on a bioluminescence reader.
After 24 h, the levels of NF-κB-induced Lucia were assayed in a cell culture supernatant using QUANTI-Luc, as a detection reagent, on a bioluminescence reader (Synergy HT, BioTek Instruments, Inc. Vermont). Aliquots of the supernatant were retained for subsequent cytokine and LDH assays. Cellular proteins were extracted with a radioimmunoprecipitation assay (RIPA) buffer (Thermo Fisher, Ireland), supplemented with protease inhibitors (Sigma-Aldrich, Ireland). Lysates were clarified by centrifugation (3200g, 10’, 4 °C) to remove cell debris, and the cell protein level was quantified by performing a bicinchoninic acid (BCA) assay (as per the manufacturer’s instructions) reading the protein absorbance at 570 nm, using a spectrophotometer (SPECTRAMAX M2, Molecular Devices (U.K.) Limited). A “relative luminescence unit” (RLU) was obtained using the average value of the lum/abs ratio of two replicates.
The “coding” of the heat-map indicates the arbitrary criteria to assign points to each single PD component (efficacy = Imax or Emax; potency = IC50 or EC50; slope = HS) to generate a final (aggregate) relative PD score. […] If a single PD component was equal to the reference level (x = 1), then the single-component relative score was arbitrarily set to 0 (gray). If a single PD component was smaller than the reference level (x < 1), then the single-component relative score was arbitrarily set to −1 (light red) or −2 (dark red). If the curve of a single PD component was best fitting to a flat line (x = 0), then the single-component relative score was arbitrarily set to −4 (purple) (Table S1).

IL-6 = assay: LPS-induced IL-6 release from THP-1 Lucia monocytes (multiplex electrochemiluminescence)
Method: as §1, §2, §3

[3] = Homo sapiens, THP-1, LPS 50 ng/mL, 24 h
[4] = concentration–response, LPS 50 ng/mL, 24 h

SMILES	IC50 (THP-1 LUCIA monocytes [1]) [nM]	Safety Index TC50/IC50 (THP-1 LUCIA monocytes [1])	Intrinsic Toxicity Level (THP-1 LUCIA monocytes [2])	Intrinsic Toxicity TC50 (pM) (THP-1 LUCIA monocytes [2])	Rel. Slope (NF-κB)	Efficacy Rel. Eff. (NF-κB)	reduction of LPS-induced NF-κB-driven luciferase activity (NF-κB)	Imax (%) (NF-κB; 24 h)	(Single component) Rel. Score: Rel. Sl. (NF-κB; score relative to LXA4 (1))	further results
CCCCC[C@H](O)c1nc2ccccc2nc1/C=C/[C@@H](O)[C@@H](O)CCCC(=O)OC [(S)-6, Methyl (5S,6R,E)-5,6-Dihydroxy-8-(3-((S)-1-hydroxyhexyl)quinoxalin-2-yl)oct-7-enoate]	0.02	10	Low-Mod.	200 pM	0.47	1.42	25–35%	34 ± 9	1 (1 < x < 10)	IC50 (IFNγ; [3]): 2 nM; Imax, IFNγ release (IFNγ; [4]): 74 ± 4%; Imax, IL-1β release (IL-1β; [4]): completely lost the protective effect; PD score, IL-1β release (IL-1β; relative to LXA4 (1)): −6; IC50 (IL-6; [3]): 1 pM; Imax, IL-6 release (IL-6; [4]): 98 ± 1%; PD score, IL-6 release (IL-6; relative to LXA4 (1)): +2; rel. slope, IL-6 release (IL-6; relative to LXA4 (1)): 2.4
CCCCCCC[C@@H](O)c1nc2ccccc2nc1/C=C/[C@@H](O)[C@@H](O)CCCC(=O)OC [(R)-8, Methyl (5S,6R,E)-5,6-Dihydroxy-8-(3-((R)-1-hydroxyoctyl)quinoxalin-2-yl)oct-7-enoate]	0.2	50	Low-Mod.	10,000 pM	0.49	0.96	10–20%	23 ± 7	-1 (0.01 < x < 1)	PD score, IFNγ release (IFNγ; relative to LXA4 (1)): negative PD scores; IC50 (NF-κB; Homo sapiens, THP-1, LPS 50 ng/mL, 24 h, read-out: Potency IC50): 0.04 nM; Potency Rel. Pot. (NF-κB; IC50 relative to LXA4 (1)): 1.5; IC50 (range in words) (NF-κB; LPS 50 ng/mL, 24 h): “pM” range; (Single component) Rel. Score: Rel. Pot. (NF-κB; score relative to LXA4 (1)): 1 (1 < x < 5); (Aggregate) Rel. PD Score (NF-κB; sum of efficacy, potency, slope scores relative to LXA4 (1)): 0
